Experimental data taken from patent US5637697A, “1,5-benzodiazepine derivatives and their use in medicine” (Glaxo SpA, priority 1992, dated 1997).

Columns and labels:
[1] = system: mice and rats; assay: oral tolerability / untoward effects in mice and rats; format: in vivo; settings: given orally to mice and rats at doses at which the compound exhibits anxiolytic activity
Excerpt: (§1) The compounds of the invention are essentially non-toxic and therapeutically useful doses.

[2] = system: mice and rats; assay: anxiolytic activity, oral, mice and rats; format: in vivo; settings: given orally to mice and rats
Excerpt: For example in mice in the black-white box test and in the rat social interaction model.
as §1

[3] = molecular target: T1, CCK-B receptor (Cavia porcellus, UniProt H0VZC5); assay: CCK-B receptor binding (guinea pig cortex assay); settings: read-out: pKi CCK-B (converted)
T1 construct: CCK-B receptor (guinea pig cortex assay); from tissue; host or cells: guinea pig cortex
T1 sequence (H0VZC5 entry or part of it): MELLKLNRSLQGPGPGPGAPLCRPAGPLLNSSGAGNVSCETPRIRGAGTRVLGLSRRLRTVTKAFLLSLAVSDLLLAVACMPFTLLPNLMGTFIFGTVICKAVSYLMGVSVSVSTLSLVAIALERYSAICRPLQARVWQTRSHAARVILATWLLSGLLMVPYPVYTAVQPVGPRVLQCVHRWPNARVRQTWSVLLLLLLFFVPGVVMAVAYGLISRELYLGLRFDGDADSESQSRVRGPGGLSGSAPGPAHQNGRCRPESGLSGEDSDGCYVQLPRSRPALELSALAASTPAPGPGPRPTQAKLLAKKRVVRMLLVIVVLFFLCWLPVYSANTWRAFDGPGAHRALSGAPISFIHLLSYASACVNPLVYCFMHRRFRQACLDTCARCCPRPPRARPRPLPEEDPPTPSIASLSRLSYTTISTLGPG
Procedure: The greater affinity of the compounds of the invention for the CCK-B receptor over the CCK-A receptor has also been established using the CCK, receptor binding assays described by G Dal Fornos et al., J. Pharmcol. Exp & Ther. 261, 1056-1063, 1992.
The binding affinity of the compounds of the invention for the CCK-A receptor (Pancreas Assay) and CCK-B receptor (guinea pig cortex assay) was determined using the procedure of G Dal Forno et al J. Pharmacol. Exp & Ther. 261 - 1056-1063. The pKi values determined with respresentative compounds of invention were as follows: […]

`O=C(Nc1ccccc1)NC1C(=O)N(CC23CC4CC(CC(C4)C2)C3)c2ccccc2N(c2ccccc2)C1=O` (single isomer, unassigned; (+)) [Example 45, (+)-N-[1-(Adamantanmethyl)-2,4-dioxo-5-phenyl-2,3,4,5-tetrahydro-1H-1,5-benzodiazepin-3-yl]-N'-phenylurea] was tested, and the untoward effects [1] was “no untoward effects were obserbved” and the anxiolytic activity [2] was “exhibits anxiolytic activity”.
`O=C(Nc1ccccc1)NC1C(=O)N(CC2CC3C=CC2C3)c2ccccc2N(c2ccccc2)C1=O` (stereo not drawn) [Example 31, N-[1-(Bicyclo[2.2.1]-5-heptene-2-ylmethyl)-2,4-dioxo-5-phenyl-2,3,4,5-tetrahydro-1H-1,5-benzodiazepin-3-yl]-N'-phenylurea] gave a Ki [3] of 1.2 nM.
